Assay results from ChEMBL document CHEMBL1201862, “PubChem BioAssay data set” (2004).
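Grown in 96-well plates, cells were treated for 48 hours with each compound at five concentrations. Insufficient inhibition: endpoint recorded as highest concentration tested. GI50: concentration for 50% inhibition of growth.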 The source made the active and inactive calls. Cut-off read from the data, not from the text of the source: active = GI50 up to about 1.1 µM and inactive = higher.

Assays:
Assay in all cases: DTP human tumour cell line panel, 48 h
ACHN = test system: ACHN
786-0 = test system: 786-0
MDA-N = test system: MDA-N
U-251 = test system: U-251
T47D = test system: T47D
OVCAR-5 = test system: OVCAR-5
IGROV-1 = test system: IGROV-1
OVCAR-3 = test system: OVCAR-3
MOLT-4 = test system: MOLT-4
HCT-15 = test system: HCT-15
NCI/ADR-RES = test system: NCI/ADR-RES
SK-OV-3 = test system: SK-OV-3
OVCAR-8 = test system: OVCAR-8
HOP-92 = test system: HOP-92
HL-60 = test system: HL-60
SN12C = test system: SN12C
SNB-19 = test system: SNB-19
Malme-3M = test system: Malme-3M
CAKI-1 = test system: CAKI-1
HT-29 = test system: HT-29
SK-MEL-2 = test system: SK-MEL-2
RXF 393 = test system: RXF 393
NCI-H23 = test system: NCI-H23
TK-10 = test system: TK-10
K562 = test system: K562
EKVX = test system: EKVX
COLO 205 = test system: COLO 205
KM12 = test system: KM12
MCF7 = test system: MCF7
HOP-62 = test system: HOP-62
SNB-75 = test system: SNB-75
SF-539 = test system: SF-539
SK-MEL-28 = test system: SK-MEL-28
UACC-62 = test system: UACC-62
NCI-H460 = test system: NCI-H460
Hs-578T = test system: Hs-578T
RPMI-8226 = test system: RPMI-8226
A549 = test system: A549
CCRF-CEM = test system: CCRF-CEM
UACC-257 = test system: UACC-257
UO-31 = test system: UO-31
SW-620 = test system: SW-620
LOX IMVI = test system: LOX IMVI
NCI-H226 = test system: NCI-H226
M14 = test system: M14
SR = test system: SR
SF-268 = test system: SF-268
DU-145 = test system: DU-145
PC-3 = test system: PC-3
MDA-MB-231 = test system: MDA-MB-231
MDA-MB-435 = test system: MDA-MB-435
HCT-116 = test system: HCT-116
SF-295 = test system: SF-295
OVCAR-4 = test system: OVCAR-4
SK-MEL-5 = test system: SK-MEL-5
NCI-H522 = test system: NCI-H522
HCC 2998 = test system: HCC 2998

Measured: GI50

CN(C)CCNc1ccc([N+](=O)[O-])c2nc3ccccc3c(N)c12
inactive: OVCAR-5 > 10 µM | CAKI-1 1.84 µM | SK-MEL-2 1.99 µM | TK-10 2.53 µM | MCF7 > 10 µM | HOP-62 2.26 µM | SK-MEL-28 3.83 µM | UACC-62 1.15 µM | Hs-578T 3.96 µM | UACC-257 2.18 µM | NCI-H226 > 10 µM | SK-MEL-5 1.41 µM
active: ACHN 0.313 µM | 786-0 0.535 µM | MDA-N 0.585 µM | U-251 0.703 µM | T47D 0.48 µM | IGROV-1 0.456 µM | OVCAR-3 0.532 µM | MOLT-4 0.434 µM | NCI/ADR-RES 0.569 µM | SK-OV-3 0.152 µM | OVCAR-8 0.792 µM | HOP-92 0.547 µM | HL-60 0.741 µM | SN12C 0.783 µM | SNB-19 0.895 µM | Malme-3M 0.443 µM | HT-29 0.318 µM | RXF 393 1.05 µM | NCI-H23 0.889 µM | K562 0.341 µM | EKVX 0.607 µM | COLO 205 0.182 µM | KM12 0.381 µM | SNB-75 0.841 µM | SF-539 0.536 µM | NCI-H460 0.318 µM | RPMI-8226 0.31 µM | A549 0.439 µM | CCRF-CEM 0.241 µM | UO-31 0.757 µM | SW-620 0.297 µM | LOX IMVI 0.375 µM | M14 0.574 µM | SR 0.282 µM | SF-268 0.507 µM | DU-145 0.804 µM | PC-3 0.405 µM | MDA-MB-231 0.695 µM | MDA-MB-435 0.615 µM | HCT-116 0.261 µM | SF-295 0.711 µM | OVCAR-4 0.74 µM
0.444 µM: HCT-15

CC(NCc1c(O)ccc2ccc(=O)oc12)C(=O)O (configuration not stated)
inactive: ACHN > 100 µM | 786-0 > 100 µM | MDA-N > 100 µM | U-251 > 100 µM | T47D > 100 µM | OVCAR-5 > 100 µM | IGROV-1 > 100 µM | OVCAR-3 > 100 µM | MOLT-4 > 100 µM | NCI/ADR-RES > 100 µM | SK-OV-3 > 100 µM | OVCAR-8 > 100 µM | HOP-92 > 100 µM | HL-60 > 100 µM | SN12C > 100 µM | SNB-19 > 100 µM | Malme-3M > 100 µM | CAKI-1 > 100 µM | HT-29 > 100 µM | SK-MEL-2 > 100 µM | RXF 393 > 100 µM | NCI-H23 > 100 µM | TK-10 > 100 µM | K562 > 100 µM | EKVX > 100 µM | COLO 205 > 100 µM | KM12 > 100 µM | MCF7 > 100 µM | NCI-H522 > 100 µM | HOP-62 > 100 µM | SNB-75 > 100 µM | SF-539 > 100 µM | SK-MEL-28 > 100 µM | UACC-62 > 100 µM | NCI-H460 > 100 µM | Hs-578T > 100 µM | RPMI-8226 > 100 µM | A549 > 100 µM | CCRF-CEM > 100 µM | UACC-257 > 100 µM | UO-31 > 100 µM | SW-620 > 100 µM | LOX IMVI > 100 µM | NCI-H226 > 100 µM | M14 > 100 µM | SR > 100 µM | SF-268 > 100 µM | DU-145 > 100 µM | PC-3 > 100 µM | MDA-MB-231 > 100 µM | MDA-MB-435 > 100 µM | HCC 2998 > 100 µM | HCT-116 > 100 µM | SF-295 > 100 µM | OVCAR-4 > 100 µM | SK-MEL-5 > 100 µM
> 100 µM: HCT-15
